Assay results: the supplement of paper PMC10307832

Legend:
Assay in all cases: relative viability (nuclei count vs DMSO), 5 days (fraction); higher = more cells survive
[1] = compound: CN[C@@H]1C[C@H]2O[C@@](C)([C@@H]1OC)n1c3ccccc3c3c4c(c5c6ccccc6n2c5c31)C(=O)NC4 [Staurosporine] + C[C@]1(O)C[C@@H](c2nc(-c3ccc4ccc(-c5ccccc5)nc4c3)c3c(N)nccn32)C1 [Linsitinib] (partner 1 µM)
Summary of the method: (§1)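 A single step with final 0.05% Triton X-100, 1% formaldehyde and 1 ug/ml Hoechst fixed the cells and stained nuclei 5 days after treatment. Lung cancer cell lines in 1536-well plates had been treated by pin tool the day after seeding with one drug alone or a fixed anchor-drug dose plus five library-drug doses (not always all listed) in √10 steps, and nuclei were counted on 4× images. Relative viability is the ratio of nuclei in treated wells to nuclei in vehicle wells, taken as the median of duplicate plates.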

Sulindac + Navitoclax = compound: CC1=C(CC(=O)O)c2cc(F)ccc2/C1=C\c1ccc([S+](C)[O-])cc1 [Sulindac] + CC1(C)CCC(c2ccc(Cl)cc2)=C(CN2CCN(c3ccc(C(=O)NS(=O)(=O)c4ccc(N[C@H](CCN5CCOCC5)CSc5ccccc5)c(S(=O)(=O)C(F)(F)F)c4)cc3)CC2)C1 [Navitoclax] (partner 0.5 µM)
Summary of the method: as §1

Sulindac + Lapatinib = compound: CC1=C(CC(=O)O)c2cc(F)ccc2/C1=C\c1ccc([S+](C)[O-])cc1 [Sulindac] + CS(=O)(=O)CCNCc1ccc(-c2ccc3ncnc(Nc4ccc(OCc5cccc(F)c5)c(Cl)c4)c3c2)o1 [Lapatinib] (partner 2 µM)
Summary of the method: as §1

[2] = compound: CN[C@@H]1C[C@H]2O[C@@](C)([C@@H]1OC)n1c3ccccc3c3c4c(c5c6ccccc6n2c5c31)C(=O)NC4 [Staurosporine] + CC(C)C[C@H](NC(=O)[C@H](Cc1ccccc1)NC(=O)c1cnccn1)B(O)O [Bortezomib] (partner 0.002 µM)
Summary of the method: as §1

Cell Line | relative viability ([1]; first compound 0.005 µM) | relative viability ([1]; first compound 0.01581 µM) | relative viability ([1]; first compound 0.05 µM) | relative viability ([1]; first compound 0.1581 µM) | relative viability ([1]; first compound 0.5 µM) | relative viability (Sulindac + Navitoclax; first compound 0.08 µM) | relative viability (Sulindac + Navitoclax; first compound 0.253 µM) | relative viability (Sulindac + Navitoclax; first compound 0.8 µM) | relative viability (Sulindac + Navitoclax; first compound 2.53 µM) | relative viability (Sulindac + Navitoclax; first compound 8 µM) | relative viability (Sulindac + Lapatinib; first compound 0.08 µM) | relative viability (Sulindac + Lapatinib; first compound 0.253 µM) | relative viability (Sulindac + Lapatinib; first compound 0.8 µM) | relative viability (Sulindac + Lapatinib; first compound 2.53 µM) | relative viability (Sulindac + Lapatinib; first compound 8 µM) | relative viability ([2]; first compound 0.005 µM) | relative viability ([2]; first compound 0.01581 µM) | relative viability ([2]; first compound 0.05 µM) | relative viability ([2]; first compound 0.1581 µM) | relative viability ([2]; first compound 0.5 µM)
NCI-H1355 | 0.908 | 0.543 | 0.24 | 0.269 | 0.223 | 1.03 | 0.989 | 0.806 | 0.961 | 0.914 | 1.16 | 1.05 | 0.881 | 0.956 | 1.13 | 1.09 | 0.693 | 0.259 | 0.202 | 0.209
EKVX | 0.624 | 0.357 | 0.22 | 0.183 | 0.109 | 0.976 | 0.969 | 0.889 | 1.04 | 1.07 | 0.193 | 0.186 | 0.21 | 0.18 | 0.111 | 0.351 | 0.234 | 0.262 | – | 0.125
NCI-H520 | 1.05 | 0.824 | 0.604 | 0.213 | 0.128 | 1.33 | 1.17 | 1.03 | 1.04 | 1.44 | 0.956 | 0.944 | 0.793 | 0.755 | 1.14 | 0.716 | 0.128 | 0.307 | 0.207 | 0.117
NCI-H1993 | 0.761 | 0.634 | 0.605 | 0.439 | 0.55 | 1.13 | 0.917 | 0.871 | 0.933 | 0.88 | 0.837 | 0.801 | 0.757 | 0.77 | 0.805 | – | 0.44 | 0.463 | 0.483 | 0.315
HCC-78 | 0.613 | 0.457 | 0.363 | 0.295 | 0.268 | 0.784 | 0.716 | 0.711 | 0.71 | 0.77 | 0.868 | 0.623 | 0.28 | 0.569 | 0.944 | 0.483 | 0.388 | 0.256 | 0.404 | 0.332
NCI-H2087 | 0.71 | 0.712 | 0.356 | 0.296 | 0.153 | 0.958 | 0.939 | 0.88 | 0.973 | 1.1 | 1.28 | 1.04 | 1.27 | 1.08 | 1.22 | 0.761 | 0.548 | 0.39 | 0.175 | 0.113
H3255 | 0.814 | 0.549 | 0.303 | 0.226 | 0.116 | 0.54 | 0.685 | 0.551 | 0.512 | 0.612 | 0.206 | 0.217 | 0.42 | 0.21 | 0.276 | 0.357 | 0.228 | 0.337 | 0.162 | 0.136
NCI-H2126 | 0.797 | 0.553 | 0.461 | 0.376 | 0.366 | 0.823 | 0.894 | 0.817 | 0.856 | 0.853 | 0.793 | 0.722 | 0.758 | 0.773 | 0.861 | 1.1 | 0.817 | 0.777 | 0.371 | 0.387
LC-2-ad | 0.817 | 0.434 | 0.192 | 0.0865 | 0.0668 | 0.384 | 0.495 | 0.548 | 0.434 | 0.564 | 1.1 | 1.04 | 0.893 | 1.02 | 1.02 | 0.973 | 0.096 | 0.508 | 0.0851 | 0.0564
SK-LU-1 | 0.313 | 0.263 | 0.205 | 0.2 | 0.145 | 0.96 | 0.875 | 0.694 | 0.84 | 1.54 | 0.981 | 0.918 | – | 0.839 | 0.9 | 0.906 | – | 0.255 | 0.2 | 0.179
EBC-1 | 0.738 | 0.523 | 0.181 | 0.122 | 0.111 | 0.377 | 0.387 | 0.36 | 0.344 | 0.431 | 0.213 | 0.211 | – | 0.237 | 0.218 | 0.308 | 0.234 | 0.185 | 0.2 | 0.14
HCC-15 | 0.921 | – | 0.656 | 0.444 | 0.276 | 0.811 | 0.795 | 0.625 | 0.708 | 0.798 | 1.06 | 0.87 | 0.763 | 0.801 | 0.914 | 1.05 | – | 0.842 | 0.376 | 0.251
NCI-H1563 | 0.752 | 0.611 | 0.733 | 0.654 | 0.478 | – | – | – | – | – | 0.992 | 0.901 | 0.884 | 0.879 | 0.933 | 0.655 | 0.571 | 0.661 | 0.501 | 0.438
COR-L 105 | 0.561 | 0.353 | 0.246 | 0.261 | 0.213 | 0.591 | 0.987 | 0.901 | 0.722 | 0.962 | 0.348 | 0.34 | 0.408 | 0.324 | 0.412 | 0.351 | 0.257 | 0.203 | 0.22 | 0.231
NCI-H647 | 0.616 | 0.361 | 0.22 | 0.112 | 0.0579 | 1.48 | 1.26 | 0.991 | 1.04 | 1.53 | 1.22 | 1.13 | 0.651 | 1.38 | 1.32 | 0.532 | 0.164 | 0.285 | 0.0743 | 0.0533
LU99A | 0.441 | 0.212 | 0.201 | 0.182 | 0.14 | 0.964 | 0.781 | 0.689 | 0.73 | 0.878 | 1.33 | 1.11 | 0.854 | 0.869 | 1.01 | 0.985 | 0.389 | 0.318 | 0.271 | 0.172
